For assay [1], the system named is Haemophilus influenzae 76. The assay can be described thus: MIC, standard agar-dilution assay. It is filed as cell-based. Here is the method:
(§1) The formula I compounds have in vitro and in vivo activity against Gram-positive pathogenic bacteria. The MIC's were determined using a standard agar-dilution assays.

In assay [2] the test system is Haemophilus influenzae C.L. In words: MIC, standard agar-dilution assay. It counts as cell-based. Here is the method:
as §1

For assay [3], the system named is Klebsiella pneumoniae KAE. In words: MIC, standard agar-dilution assay. It counts as cell-based. On the procedure: as §1
For assay [4], the system named is Klebsiella pneumoniae X26. In words: MIC, standard agar-dilution assay. It counts as cell-based. Here is the method: as §1
The subject of assay [5] is Klebsiella pneumoniae X68. The assay can be described thus: MIC, standard agar-dilution assay. It counts as cell-based. On the procedure:
as §1

Assay [6] has as its system Staphylococcus aureus NRRL X1.1. The assay can be described thus: MIC, standard agar-dilution assay. It is filed as cell-based. Here is the method: as §1
Assay [7] deals with Staphylococcus aureus V41. The assay can be described thus: MIC, standard agar-dilution assay. It counts as cell-based. Here is the method:
as §1

Assay [8] concerns Staphylococcus aureus X400. In words: MIC, standard agar-dilution assay. It is filed as cell-based. Here is the method: as §1
The test system of assay [9] is Staphylococcus epidermidis 222. In words: MIC, standard agar-dilution assay. It counts as cell-based. On the procedure: as §1
Assay [10] has as its system Staphylococcus epidermidis EPI270. In words: MIC, standard agar-dilution assay. It counts as cell-based. On the procedure: as §1
Assay [11] concerns Streptococcus pyogenes C203. In words: MIC, standard agar-dilution assay. It counts as cell-based. Here is the method:
as §1

Assay [12] has as its system Staphylococcus aureus S13E. It counts as cell-based. On the procedure:
as §1

Assay [13] concerns Streptococcus pneumoniae Park 1. It counts as cell-based. On the procedure:
as §1

For another assay, the system named is Enterococcus faecium X66. In words: MIC, standard agar-dilution assay. It is filed as cell-based. On the procedure:
as §1
^b Formerly Streptococcus faecium X66

Assay [14] relates to Enterococcus faecalis 2041. The assay can be described thus: MIC, standard agar-dilution assay. It is filed as cell-based. On the procedure:
as §1
^c Formerly Streptococcus faecalis 2041

A further assay has as its system Escherichia coli EC14. The assay can be described thus: MIC, standard agar-dilution assay. It counts as cell-based. On the procedure:
as §1

Another assay concerns Escherichia coli N10. In words: MIC, standard agar-dilution assay. It is filed as cell-based. Here is the method: as §1
The next assay concerns Escherichia coli TEM. The assay can be described thus: MIC, standard agar-dilution assay. It counts as cell-based. On the procedure:
as §1

A further assay deals with Staphylococcus aureus. The assay can be described thus: In vivo activity, experimentally infected mice (ED50). The conditions noted are these: Staphylococcus aureus infection; doses administered subcutaneously to mice 1 and 4 hours postinfection.
The subject of another assay is Streptococcus pyogenes. Described as above. The note with it: Streptococcus pyogenes infection; doses administered subcutaneously to mice 1 and 4 hours postinfection.
In a further assay the test system is Streptococcus pneumoniae. The description is as above. The note with it: Streptococcus pneumoniae infection; doses administered subcutaneously to mice 1 and 4 hours postinfection.

≈ marks a conversion by molar mass, not a printed value. Bounds are passed on as bounds.

As to `CC(C)C[C@H](C(=O)N[C@H]1C(=O)N[C@@H](CC(N)=O)C(=O)N[C@H]2C(=O)N[C@H]3C(=O)N[C@H](C(=O)N[C@H](C(=O)O)c4cc(O)cc(O)c4-c4cc3ccc4O)[C@H](O[C@H]3C[C@](C)(NCc4ccccc4)[C@@H](O)[C@H](C)O3)c3ccc(cc3)Oc3cc2cc(c3O[C@@H]2O[C@H](CO)[C@@H](O)[C@H](O)[C@H]2O[C@H]2C[C@](C)(NCc3ccccc3)[C@@H](O)[C@H](C)O2)Oc2ccc(cc2Cl)[C@H]1O)N(C)Cc1ccccc1` [Compound 12], the MIC in assay [1] was above 128 µg/mL; in [2] it was above 128 µg/mL; in assay [3], above 128 µg/mL; in assay [4], above 128 µg/mL; in [5], above 128 µg/mL; in assay [6], 8 µg/mL (≈ 4.38 µM). For the same compound, the MIC was determined as 8 µg/mL (≈ 4.38 µM) in assay [7]; 8 µg/mL (≈ 4.38 µM) in assay [8]; 8 µg/mL (≈ 4.38 µM) in assay [9]; 8 µg/mL (≈ 4.38 µM) in [10]; 2 µg/mL (≈ 1.09 µM) in assay [11]; 4 µg/mL (≈ 2.19 µM) in assay [12]. Also, the MIC in assay [13] is 2 µg/mL (≈ 1.09 µM); in the assay on Enterococcus faecium X66, 4 µg/mL (≈ 2.19 µM); in [14], 8 µg/mL (≈ 4.38 µM).

Consider `CNC(CC(C)C)C(=O)NC1C(=O)NC(CC(N)=O)C(=O)NC2C(=O)NC3C(=O)NC(C(=O)NC(C(=O)O)c4cc(O)cc(O)c4-c4cc3ccc4O)C(OC3CC(C)(NCc4ccccc4)C(O)C(C)O3)c3ccc(c(Cl)c3)Oc3cc2cc(c3O)Oc2ccc(cc2Cl)C1O` (stereo not drawn) [Compound 79], for which the MIC (in the assay with Escherichia coli EC14; in the assay with Escherichia coli N10; against Escherichia coli TEM; in assay [1]; in [2]; in assay [3]) was above 128 µg/mL in each case. The MIC in assay [4] was above 128 µg/mL; in assay [5], above 128 µg/mL; in [6], “.25 µg/mL”; in assay [7] it was “.25 µg/mL”; in assay [8], “.5 µg/mL”; in [9] it was “.5 µg/mL”. Moreover, the MIC entry in [11] is “.25 µg/mL”; in [12], “.25 µg/mL”; in assay [13], “.25 µg/mL”; with Enterococcus faecium X66, 1 µg/mL (≈ 0.726 µM); in assay [14] it was 1 µg/mL (≈ 0.726 µM). The ED50 is given as above 1.0 mg/kg/2 in the assay on Staphylococcus aureus, 0.71 mg/kg/2 with Streptococcus pyogenes and 0.71 mg/kg/2 with Streptococcus pneumoniae.

`CNC(CC(C)C)C(=O)NC1C(=O)NC(CC(N)=O)C(=O)NC2C(=O)NC3C(=O)NC(C(=O)NC(C(=O)O)c4cc(O)cc(O)c4-c4cc3ccc4O)C(OC3CC(C)(N)C(O)C(C)O3)c3ccc(c(Cl)c3)Oc3cc2cc(c3OC2OC(CO)C(O)C(O)C2OC2CC(C)(NCc3ccc(F)cc3)C(O)C(C)O2)Oc2ccc(cc2Cl)C1O` (stereo not drawn) [Compound 67]: the MIC (against Escherichia coli EC14; against Escherichia coli N10; in assay [1]; in assay [2]; in assay [3]; in [4]) was above 128 µg/mL each time. Further, the MIC is above 128 µg/mL in assay [5]; “.5 µg/mL” in assay [6]; 1 µg/mL (≈ 0.588 µM) in assay [7]; 1 µg/mL (≈ 0.588 µM) in assay [8]; “.5 µg/mL” in [9]; 2 µg/mL (≈ 1.18 µM) in [10]. Also, the MIC result in assay [11] was “.25 µg/mL”; in assay [12], 1 µg/mL (≈ 0.588 µM); in assay [13] it was “.125 µg/mL”; against Enterococcus faecium X66, “.5 µg/mL”; in assay [14], “.5 µg/mL”. Also, the ED50 in the assay with Staphylococcus aureus is given as 0.33 mg/kg/2; in the assay on Streptococcus pyogenes, below 0.12 mg/kg/2; with Streptococcus pneumoniae, below 0.12 mg/kg/2.

With `CN[C@H](CC(C)C)C(=O)N[C@H]1C(=O)N[C@@H](CC(N)=O)C(=O)N[C@H]2C(=O)N[C@H]3C(=O)N[C@H](C(=O)N[C@H](C(=O)O)c4cc(O)cc(O)c4-c4cc3ccc4O)[C@H](O[C@H]3C[C@](C)(N)[C@@H](O)[C@H](C)O3)c3ccc(cc3)Oc3cc2cc(c3O[C@@H]2O[C@H](CO)[C@@H](O)[C@H](O)[C@H]2O[C@H]2C[C@](C)(NCC(c3ccccc3)c3ccccc3)[C@@H](O)[C@H](C)O2)Oc2ccc(cc2Cl)[C@H]1O` [Compound 26], the results for the ED50 with Staphylococcus aureus, in the assay with Streptococcus pyogenes and in the assay on Streptococcus pneumoniae were above 3.0 mg/kg/2, 0.48 mg/kg/2 and 0.47 mg/kg/2, respectively.

Regarding `CNC(CC(C)C)C(=O)NC1C(=O)NC(CC(N)=O)C(=O)NC2C(=O)NC3C(=O)NC(C(=O)NC(C(=O)O)c4cc(O)cc(O)c4-c4cc3ccc4O)C(OC3CC(C)(NCc4ccc(Cl)cc4)C(O)C(C)O3)c3ccc(c(Cl)c3)Oc3cc2cc(c3OC2OC(CO)C(O)C(O)C2OC2CC(C)(NCc3ccc(Cl)cc3)C(O)C(C)O2)Oc2ccc(cc2Cl)C1O` (stereo not drawn) [Compound 61], the values for the ED50 with Staphylococcus aureus, in the assay on Streptococcus pyogenes and with Streptococcus pneumoniae were 1.83 mg/kg/2, 0.10 mg/kg/2 and 0.08 mg/kg/2, respectively.

Take `CNC(CC(C)C)C(=O)NC1C(=O)NC(CC(N)=O)C(=O)NC2C(=O)NC3C(=O)NC(C(=O)NC(C(=O)O)c4cc(O)cc(O)c4-c4cc3ccc4O)C(OC3CC(C)(NCc4ccc(F)cc4)C(O)C(C)O3)c3ccc(c(Cl)c3)Oc3cc2cc(c3OC2OC(CO)C(O)C(O)C2OC2CC(C)(N)C(O)C(C)O2)Oc2ccc(cc2Cl)C1O` (stereo not drawn) [Compound 66]: the MIC (in the assay with Escherichia coli EC14; against Escherichia coli N10; in [1]; in assay [2]; in assay [3]; in assay [4]) was above 128 µg/mL throughout. Also, the MIC in assay [5] was above 128 µg/mL; in assay [6] it was “.5 µg/mL”; in assay [7], 1 µg/mL (≈ 0.588 µM); in assay [8] it was 1 µg/mL (≈ 0.588 µM); in [9], 1 µg/mL (≈ 0.588 µM); in assay [10] it was 2 µg/mL (≈ 1.18 µM). In addition, the MIC result in [11] is “.5 µg/mL”; in [12], 1 µg/mL (≈ 0.588 µM); in assay [13], “.25 µg/mL”; in the assay on Enterococcus faecium X66 it was 1 µg/mL (≈ 0.588 µM); in [14], 1 µg/mL (≈ 0.588 µM). Besides, the ED50 in the assay on Staphylococcus aureus was found to be 0.37 mg/kg/2; in the assay on Streptococcus pyogenes, 0.18 mg/kg/2; with Streptococcus pneumoniae it was 0.22 mg/kg/2.

Turning to `CCCCCN[C@@]1(C)C[C@H](O[C@H]2[C@H](Oc3c4cc5cc3Oc3ccc(cc3Cl)[C@@H](O[C@H]3C[C@](C)(N)[C@@H](O)[C@H](C)O3)[C@@H]3NC(=O)[C@H](NC(=O)[C@@H]5NC(=O)[C@H](CC(N)=O)NC(=O)[C@H](NC(=O)[C@@H](CC(C)C)N(C)CCCCC)[C@H](O)c5ccc(c(Cl)c5)O4)c4ccc(O)c(c4)-c4c(O)cc(O)cc4[C@@H](C(=O)O)NC3=O)O[C@H](CO)[C@@H](O)[C@@H]2O)O[C@@H](C)[C@@H]1O` [Compound 36], the ED50 came out at 1.0 mg/kg/2 in the assay on Staphylococcus aureus, 0.38 mg/kg/2 in the assay on Streptococcus pyogenes and 0.29 mg/kg/2 with Streptococcus pneumoniae.

Take `CN[C@H](CC(C)C)C(=O)N[C@H]1C(=O)N[C@@H](CC(N)=O)C(=O)N[C@H]2C(=O)N[C@H]3C(=O)N[C@H](C(=O)N[C@H](C(=O)O)c4cc(O)cc(O)c4-c4cc3ccc4O)[C@H](O[C@H]3C[C@](C)(N)[C@@H](O)[C@H](C)O3)c3ccc(cc3)Oc3cc2cc(c3O[C@@H]2O[C@H](CO)[C@@H](O)[C@H](O)[C@H]2O[C@H]2C[C@](C)(NCc3ccc(Cl)cc3)[C@@H](O)[C@H](C)O2)Oc2ccc(cc2Cl)[C@H]1O` [Compound 20]: the ED50 in the assay with Staphylococcus aureus was above 2.0 mg/kg/2; in the assay on Streptococcus pyogenes, 0.15 mg/kg/2; in the assay with Streptococcus pneumoniae it was 0.23 mg/kg/2.

For `CN[C@H](CC(C)C)C(=O)N[C@H]1C(=O)N[C@@H](CC(N)=O)C(=O)N[C@H]2C(=O)N[C@H]3C(=O)N[C@H](C(=O)N[C@H](C(=O)O)c4cc(O)cc(O)c4-c4cc3ccc4O)[C@H](O[C@H]3C[C@](C)(NCc4ccccc4)[C@@H](O)[C@H](C)O3)c3ccc(cc3)Oc3cc2cc(c3O[C@@H]2O[C@H](CO)[C@@H](O)[C@H](O)[C@H]2O[C@H]2C[C@](C)(NCc3ccccc3)[C@@H](O)[C@H](C)O2)Oc2ccc(cc2Cl)[C@H]1O` [Compound 11], the MIC in [1] is above 128 µg/mL; in [2], above 128 µg/mL; in assay [3], above 128 µg/mL; in [4], above 128 µg/mL; in assay [5], above 128 µg/mL; in [6] it was “.25 µg/mL”. In addition, the MIC entry in [7] is “.5 µg/mL”; in assay [8], “.5 µg/mL”; in assay [9] it was “.5 µg/mL”; in [10], 1 µg/mL (≈ 0.575 µM); in assay [11], “.25 µg/mL”; in [12], “.25 µg/mL”. Also, the figures for the MIC entry (in [13]; in the assay on Enterococcus faecium X66; in assay [14]) were “.25 µg/mL”, “.25 µg/mL” and 1 µg/mL (≈ 0.575 µM), respectively. In addition, the ED50 in the assay on Staphylococcus aureus was found to be 0.58 mg/kg/2; in the assay with Streptococcus pyogenes it was 0.34 mg/kg/2; in the assay with Streptococcus pneumoniae it was 0.37 mg/kg/2.
